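Tested at 5 concentrations; 48 h exposure; 96-well plates; endpoints linearly interpolated, else capped at highest concentration. GI50 = concentration required for 50% inhibition of growth. TGI marks complete inhibition of growth.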
What was measured:
Assay in all cases: growth of human tumour cells (NCI), 48 h
MCF7 breast = test system: MCF7 breast
NCI-H23 lung = test system: NCI-H23 lung
OVCAR-3 ovarian = test system: OVCAR-3 ovarian
OVCAR-8 ovarian = test system: OVCAR-8 ovarian
SF-295 CNS = test system: SF-295 CNS
U251 CNS = test system: U251 CNS
UACC-62 melanoma = test system: UACC-62 melanoma
UO-31 renal = test system: UO-31 renal
M14 melanoma = test system: M14 melanoma
SR leukemia = test system: SR leukemia

For `COc1ccc(OCC(C)(C)O)cc1`, which TGI (MCF7 breast) is on record?
Its TGI is greater than 84.1 µM.

What about the TGI (NCI-H23 lung) of the same compound?
The TGI was greater than 100 µM.

And the TGI (OVCAR-3 ovarian)?
The TGI was greater than 100 µM.

What about the TGI (OVCAR-8 ovarian) of the same compound?
Its TGI is greater than 100 µM.

And the TGI (SF-295 CNS)?
Its TGI is greater than 100 µM.

What about the TGI (U251 CNS) of the same compound?
The TGI was greater than 100 µM.

What about the TGI (UACC-62 melanoma) of the same compound?
The TGI was greater than 100 µM.

And the TGI (UO-31 renal)?
The TGI was greater than 100 µM.

`CCCCCCCCCC[N+](C)(C)C` was tested. Which GI50 (M14 melanoma) did it give?
Its GI50 is 1.74 µM.

What about the TGI (M14 melanoma) of the same compound?
Its TGI is 5.83 µM.

And the GI50 (MCF7 breast)?
Its GI50 is 2.45 µM.

What about the TGI (MCF7 breast) of the same compound?
The TGI was 12.7 µM.

And the GI50 (NCI-H23 lung)?
Its GI50 is 2 µM.

And the TGI (NCI-H23 lung)?
The TGI was 6.34 µM.

And the GI50 (OVCAR-3 ovarian)?
Its GI50 is 1.68 µM.

What about the TGI (OVCAR-3 ovarian) of the same compound?
Its TGI is 5.4 µM.

And the GI50 (OVCAR-8 ovarian)?
Its GI50 is 1.83 µM.

And the TGI (OVCAR-8 ovarian)?
Its TGI is 5.53 µM.

And the GI50 (SF-295 CNS)?
The GI50 was 1.97 µM.

What about the TGI (SF-295 CNS) of the same compound?
The TGI was 5.81 µM.

And the GI50 (SR leukemia)?
The GI50 was 1.12 µM.

And the TGI (SR leukemia)?
The TGI was 3.43 µM.

What about the GI50 (U251 CNS) of the same compound?
The GI50 was 1.04 µM.

And the TGI (U251 CNS)?
Its TGI is 2.29 µM.

And the GI50 (UACC-62 melanoma)?
The GI50 was 1.69 µM.

And the TGI (UACC-62 melanoma)?
Its TGI is 4.59 µM.

And the GI50 (UO-31 renal)?
Its GI50 is 4.91 µM.

And the TGI (UO-31 renal)?
Its TGI is 20 µM.

What does the source list for `COc1ccc2c(c1)c(=O)c1c(NCCCN(C)C)ccc3ncn2c31`?
TGI (M14 melanoma): 12.9 µM; TGI (MCF7 breast): 8.4 µM; TGI (NCI-H23 lung): 21 µM; TGI (OVCAR-3 ovarian): 26.7 µM; TGI (OVCAR-8 ovarian): 9.4 µM; TGI (SF-295 CNS): 15.2 µM; TGI (SR leukemia): > 44.9 µM; TGI (U251 CNS): 5.93 µM; TGI (UACC-62 melanoma): 28.7 µM; TGI (UO-31 renal): 16.1 µM

Which results are given for `CSS(C)(=O)=O`?
TGI (M14 melanoma): 74.7 µM; TGI (MCF7 breast): > 100 µM; TGI (NCI-H23 lung): 50.5 µM; TGI (OVCAR-3 ovarian): 41.6 µM; TGI (OVCAR-8 ovarian): 68.8 µM; TGI (SF-295 CNS): 54.5 µM; TGI (SR leukemia): 38.6 µM; TGI (U251 CNS): > 100 µM; TGI (UACC-62 melanoma): 42.3 µM; TGI (UO-31 renal): 52.1 µM

With `CCOC(=O)/C=C/c1c[nH]c(=O)[nH]c1=O` as the compound, how does the TGI (MCF7 breast) read?
The TGI was greater than 75 µM.

What about the TGI (NCI-H23 lung) of the same compound?
The TGI was greater than 75 µM.

And the TGI (OVCAR-3 ovarian)?
The TGI was greater than 75 µM.

What about the TGI (OVCAR-8 ovarian) of the same compound?
The TGI was greater than 75 µM.

And the TGI (SF-295 CNS)?
Its TGI is greater than 75 µM.

And the TGI (U251 CNS)?
The TGI was greater than 75 µM.

What about the TGI (UACC-62 melanoma) of the same compound?
The TGI was greater than 75 µM.

And the TGI (UO-31 renal)?
Its TGI is greater than 75 µM.

Which TGI (M14 melanoma) does the source give for `c1ccc(N2N=C3N(c4ccccc4)C2N3c2ccccc2)cc1` here?
Its TGI is 47.6 µM.

What about the TGI (MCF7 breast) of the same compound?
The TGI was greater than 100 µM.

And the TGI (NCI-H23 lung)?
Its TGI is greater than 100 µM.

What about the TGI (OVCAR-3 ovarian) of the same compound?
The TGI was greater than 100 µM.

And the TGI (OVCAR-8 ovarian)?
The TGI was greater than 100 µM.

What about the TGI (SF-295 CNS) of the same compound?
The TGI was greater than 100 µM.

And the TGI (U251 CNS)?
Its TGI is greater than 100 µM.

What about the TGI (UACC-62 melanoma) of the same compound?
The TGI was 80.2 µM.

What about the TGI (UO-31 renal) of the same compound?
Its TGI is greater than 100 µM.

How did the TGI (M14 melanoma) turn out when `COc1ccc(-c2c3c(nc4[nH]c(=S)[nH]c(=S)c24)CCCC3)cc1OC` was run?
Its TGI is greater than 100 µM.

And the TGI (MCF7 breast)?
Its TGI is greater than 100 µM.

And the TGI (NCI-H23 lung)?
The TGI was greater than 100 µM.

What about the TGI (OVCAR-3 ovarian) of the same compound?
Its TGI is greater than 100 µM.

And the TGI (OVCAR-8 ovarian)?
The TGI was 74.6 µM.

And the TGI (SF-295 CNS)?
The TGI was 38.8 µM.

What about the TGI (SR leukemia) of the same compound?
Its TGI is greater than 100 µM.

And the TGI (U251 CNS)?
The TGI was 39.6 µM.

And the TGI (UACC-62 melanoma)?
The TGI was 37.5 µM.

What about the TGI (UO-31 renal) of the same compound?
Its TGI is greater than 100 µM.

Which results are given for `CCOC(=O)C1=C(C)N(C2OC(COC(C)=O)C(OC(C)=O)C(OC(C)=O)C2OC(C)=O)C(=O)NC1c1ccccc1` (configuration not stated)?
TGI (M14 melanoma): > 100 µM; TGI (NCI-H23 lung): > 100 µM; TGI (OVCAR-3 ovarian): > 100 µM; TGI (OVCAR-8 ovarian): > 100 µM; TGI (SF-295 CNS): > 100 µM; TGI (SR leukemia): > 100 µM; TGI (U251 CNS): > 100 µM; TGI (UACC-62 melanoma): > 100 µM; TGI (UO-31 renal): > 100 µM

What does the source list for `CC(c1ccccc1)C(O)S(=O)(=O)O` (configuration not stated)?
TGI (M14 melanoma): > 100 µM; TGI (NCI-H23 lung): > 100 µM; TGI (OVCAR-3 ovarian): > 100 µM; TGI (OVCAR-8 ovarian): > 100 µM; TGI (SF-295 CNS): > 100 µM; TGI (U251 CNS): > 100 µM; TGI (UACC-62 melanoma): > 100 µM; TGI (UO-31 renal): > 100 µM

For `CCCCn1c(C)c2c(c1C)C(=O)N(CCN1CCN(c3ccccc3Cl)CC1)C2=O`, which TGI (M14 melanoma) is on record?
The TGI was 51.5 µM.

What about the TGI (MCF7 breast) of the same compound?
The TGI was 99 µM.

What about the TGI (NCI-H23 lung) of the same compound?
The TGI was 85.4 µM.

And the TGI (OVCAR-3 ovarian)?
The TGI was greater than 100 µM.

And the TGI (OVCAR-8 ovarian)?
The TGI was greater than 100 µM.

What about the TGI (SF-295 CNS) of the same compound?
Its TGI is greater than 100 µM.

And the TGI (SR leukemia)?
Its TGI is 58.7 µM.

What about the TGI (U251 CNS) of the same compound?
The TGI was greater than 100 µM.

And the TGI (UACC-62 melanoma)?
Its TGI is greater than 100 µM.

What about the TGI (UO-31 renal) of the same compound?
Its TGI is 43.3 µM.

— PubChem BioAssay (NCI)
